Measurements taken from patent US11951094B2, “TLR2 modulator compounds, pharmaceutical compositions and uses thereof” (Axial Therapeutics, Inc., priority 2020, dated 2024).
pEC50: −log10 of the molar value. Counter-ions that a name gives are not always drawn.

Legend:
Assay type in all cases: cell-based
TLR2 [1] = target: T1, TLR2 (Homo sapiens, UniProt O60603); experiment: TLR2 in vitro functional assay, cytokine release from human monocytic cell line THP-1; settings: THP-1 human monocytic cell line, average of all runs
Experimental: (§1) Cells of the immune system respond to TLR agonists in part by secreting cytokines. Functional assays for TLR2 agonists measure cytokine release from purified immune cells or immortalized cell lines derived from immune cells. Cytokine release is measured by standard ELISA approaches or multiplexed analysis using the Meso Scale Discovery (MSD) platform.
Following assay measurements utilizing either HEK-Blue detection or cytokine release, all data is analyzed with the GraphPad Prism8 statistical package to determine EC50, binding and activity metrics for the TLR2 modulators. […]
(§2) Numerous cell lines derived from various cell types can respond to TLR2 agonists with stereotyped cytokine and chemokine secretion. In particular, cell lines derived from macrophages respond robustly to TLR2 agonists by secreting a wide array of cytokines, including (but not limited to) TNF-alpha, IL-1, IL-10 and IL-12. The human monocytic cell line THP-1, the mouse macrophage line RAW-264.7, and the rat macrophage line NR8383 were used. For each assay, the respective cell lines were plated into 96-well plates overnight and then treated the following day with various TLR2-engaging compounds at varying concentrations. The next day, supernatants were collected and assayed by multiplex immunodetection for cytokines released (MSD detection kits for respective species).
(§3) Data provided in Table 5 is generated using protocols described in Example 45 and 46.

TLR2 [2] = target: T1, TLR2; experiment: TLR2 agonist screening assay, HEK-Blue TLR2 reporter cell line (NF-kB-driven SEAP, absorbance at 600 nm); set-up: host or cells: HEK-293 (HEK-Blue TLR2 reporter cell line); settings: HEK-Blue TLR2 reporter cells, agonist mode
Outline: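 Read-out: SEAP colour change, A600, after overnight agonist exposure. Cells: HEK-293 overexpressing TLR2, NF-kB-SEAP reporter, ~40,000/well, plated 16-24 h prior.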

TLR2 [3] = target: T2, TLR2 (Mus musculus, UniProt Q9QUN7); experiment: TLR2 functional assay, cytokine release from RAW 264.7 mouse macrophage cell line; settings: average of all runs
T2 construct: endogenous in cells; host or cells: RAW 264.7
Experimental: as §1
Purified primary human peripheral blood mononuclear cells or RAW 264.7 mouse macrophage cell line cells are plated at approximately 40,000 cells per well. Cells are treated with agonist compounds and assays 6-24 hours post-treatment for cytokines released into the cell culture media.
Following assay measurements utilizing either HEK-Blue detection or cytokine release, all data is analyzed with the GraphPad Prism8 statistical package to determine EC50, binding and activity metrics for the TLR2 modulators.
as §2, §3

T1 sequence (O60603 21-784): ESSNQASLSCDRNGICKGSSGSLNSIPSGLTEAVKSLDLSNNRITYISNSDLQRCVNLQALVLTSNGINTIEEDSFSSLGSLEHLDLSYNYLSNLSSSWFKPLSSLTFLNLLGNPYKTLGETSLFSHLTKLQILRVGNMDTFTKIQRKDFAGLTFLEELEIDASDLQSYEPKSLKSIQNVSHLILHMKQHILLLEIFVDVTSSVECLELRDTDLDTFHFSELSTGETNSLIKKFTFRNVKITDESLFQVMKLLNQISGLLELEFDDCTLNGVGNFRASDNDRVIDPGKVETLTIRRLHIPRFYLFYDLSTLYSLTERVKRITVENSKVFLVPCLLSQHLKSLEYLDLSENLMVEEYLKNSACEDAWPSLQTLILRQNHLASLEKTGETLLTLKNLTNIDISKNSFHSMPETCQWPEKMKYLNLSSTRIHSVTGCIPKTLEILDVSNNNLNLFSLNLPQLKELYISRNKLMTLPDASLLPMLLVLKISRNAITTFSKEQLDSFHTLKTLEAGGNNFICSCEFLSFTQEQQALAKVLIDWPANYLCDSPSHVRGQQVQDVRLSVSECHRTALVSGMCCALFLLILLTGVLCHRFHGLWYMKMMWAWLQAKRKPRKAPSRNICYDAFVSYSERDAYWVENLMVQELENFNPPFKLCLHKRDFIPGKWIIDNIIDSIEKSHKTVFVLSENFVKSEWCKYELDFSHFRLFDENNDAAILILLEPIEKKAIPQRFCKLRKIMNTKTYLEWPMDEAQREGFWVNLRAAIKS
T2 sequence (Q9QUN7 25-784): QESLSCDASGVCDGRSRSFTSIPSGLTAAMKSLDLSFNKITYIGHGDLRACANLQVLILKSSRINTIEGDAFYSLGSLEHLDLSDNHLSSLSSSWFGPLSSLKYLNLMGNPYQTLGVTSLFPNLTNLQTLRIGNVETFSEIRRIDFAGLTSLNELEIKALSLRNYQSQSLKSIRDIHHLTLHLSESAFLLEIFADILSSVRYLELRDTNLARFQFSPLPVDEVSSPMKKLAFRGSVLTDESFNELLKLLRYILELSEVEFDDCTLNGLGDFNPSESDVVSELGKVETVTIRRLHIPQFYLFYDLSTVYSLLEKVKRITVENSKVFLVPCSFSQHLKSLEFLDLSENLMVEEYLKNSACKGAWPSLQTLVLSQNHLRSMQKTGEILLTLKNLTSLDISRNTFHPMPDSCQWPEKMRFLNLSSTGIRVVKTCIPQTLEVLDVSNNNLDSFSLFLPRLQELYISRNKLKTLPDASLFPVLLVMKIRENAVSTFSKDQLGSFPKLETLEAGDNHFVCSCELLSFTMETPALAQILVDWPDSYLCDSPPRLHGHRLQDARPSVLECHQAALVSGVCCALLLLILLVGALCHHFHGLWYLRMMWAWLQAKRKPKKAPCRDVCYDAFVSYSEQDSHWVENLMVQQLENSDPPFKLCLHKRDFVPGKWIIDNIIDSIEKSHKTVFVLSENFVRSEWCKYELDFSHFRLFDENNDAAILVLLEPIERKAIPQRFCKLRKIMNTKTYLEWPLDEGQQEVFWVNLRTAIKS

Row | Structure (SMILES) | pEC50 (TLR2 [1]) | pEC50 (TLR2 [2]; average of all runs (Table 3)) | pEC50 (TLR2 [2]; average of all runs (Table 4)) | pEC50 (TLR2 [3])
1 | CCCCCCCCCCCCCCC(=O)N[C@H]1CCN(C(=O)c2ccc(C(=O)N3C[C@@H](C(=O)N[C@H]4C[C@@H]4c4ccccc4)[C@H](C(=O)N[C@H]4C[C@@H]4c4ccccc4)C3)cc2)C1 [Compound 026, (3S,4S)-1-(4-((S)-3-pentadecanamidopyrrolidine-1-carbonyl)benzoyl)-N3,N4-bis((1S,2R)-2-phenylcyclopropyl)pyrrolidine-3,4-dicarboxamide] | 6.46 to 7.29 | 6.46 to 7.29 |  | 
2 | CCCCCCCCCCCCCCNC(=O)[C@@H]1CCCN(C(=O)c2ccc(C(=O)N3C[C@@H](C(=O)N[C@H]4C[C@@H]4c4ccccc4)[C@H](C(=O)N[C@H]4C[C@@H]4c4ccccc4)C3)cc2)C1 [Compound 102, (3S,4S)—N3,N4-bis((1S,2R)-2-phenylcyclopropyl)-1-(4-((R)-3-(tetradecylcarbamoyl)piperidine-1-carbonyl)benzoyl) pyrrolidine-3,4-dicarboxamide] | 7.30 to 10.00 |  | 7.30 to 10.00 | 
3 | CCCCCCCO[C@@H]1CN(C(=O)c2ccc(C(=O)N3C[C@@H](C(=O)N[C@H]4C[C@@H]4c4ccccc4)[C@H](C(=O)N[C@H]4C[C@@H]4c4ccccc4)C3)cc2)C[C@H]1C(=O)NCCCCCC (single isomer, unassigned) [Compound 072, (3S,4S)-1-(4-((3S*,4R*)-3-(heptyloxy)-4-(hexylcarbamoyl)pyrrolidine-1-carbonyl)benzoyl)-N3,N4-bis((1S,2R)-2-phenylcyclopropyl)pyrrolidine-3,4-dicarboxamide] | 7.30 to 10.00 | 7.30 to 10.00 |  | 
4 | CCCCCCCC(=O)N1CCN(C(=O)c2ccc(C(=O)N3C[C@@H](C(=O)N[C@H]4C[C@@H]4c4ccccc4)[C@H](C(=O)N[C@H]4C[C@@H]4c4ccccc4)C3)cc2)CC1C(=O)NCCc1ccc(F)cc1 (stereo partly drawn) [Compound 036, (3S,4S)-1-(4-(3-((4-fluorophenethyl)carbamoyl)-4-octanoylpiperazine-1-carbonyl)benzoyl)-N3,N4-bis((1S,2R)-2-phenylcyclopropyl)pyrrolidine-3,4-dicarboxamide] | 7.30 to 10.00 | 7.30 to 10.00 |  | 
5 | CCCCCCCC(=O)N1CCN(C(=O)c2ccc(C(=O)N3C[C@@H](C(=O)N[C@H]4C[C@@H]4c4ccccc4)[C@H](C(=O)N[C@H]4C[C@@H]4c4ccccc4)C3)cc2)C[C@@H]1C(=O)NCCCCCC [Compound 032, (3S,4S)-1-(4-((R)-3-(hexylcarbamoyl)-4-octanoylpiperazine-1-carbonyl)benzoyl)-N3,N4-bis((1S,2R)-2-phenylcyclopropyl)pyrrolidine-3,4-dicarboxamide] | 7.30 to 10.00 | 7.30 to 10.00 |  | 
6 | CCCCCCNC(=O)[C@H](CNC(=O)c1ccc(C(=O)N2C[C@@H](C(=O)N[C@H]3C[C@@H]3c3ccccc3)[C@H](C(=O)N[C@H]3C[C@@H]3c3ccccc3)C2)cc1)NC(=O)CCCCCC [Compound 025, (3S,4S)-1-(4-(((S)-2-heptanamido-3-(hexylamino)-3-oxopropyl)carbamoyl)benzoyl)-N3,N4-bis((1S,2R)-2-phenylcyclopropyl)pyrrolidine-3,4-dicarboxamide] | 7.30 to 10.00 | 7.30 to 10.00 |  | 
7 | CCCCCCCCCCCCCCNC(=O)[C@@H]1CN(C(=O)c2ccc(C(=O)N3C[C@@H](C(=O)N[C@H]4C[C@@H]4c4ccccc4)[C@H](C(=O)N[C@H]4C[C@@H]4c4ccccc4)C3)cc2)C[C@H]1OC (relative stereo) [Compound 060, (3S,4S)-1-(4-((3S*,4R*)-3-methoxy-4-(tetradecylcarbamoyl)pyrrolidine-1-carbonyl)benzoyl)-N3,N4-bis((1S,2R)-2-phenylcyclopropyl)pyrrolidine-3,4-dicarboxamide] | 7.30 to 10.00 | 7.30 to 10.00 |  | 
8 | CCCCCCCCCCCCCCNC(=O)[C@H]1CN(C(=O)c2ccc(C(=O)N3C[C@@H](C(=O)N[C@H]4C[C@@H]4c4ccccc4)[C@H](C(=O)N[C@H]4C[C@@H]4c4ccccc4)C3)cc2)CCN1C [Compound 059, (3S,4S)-1-(4-((R)-4-methyl-3-(tetradecylcarbamoyl)piperazine-1-carbonyl)benzoyl)-N3,N4-bis((1S,2R)-2-phenylcyclopropyl)pyrrolidine-3,4-dicarboxamide formate] | 7.30 to 10.00 | 7.30 to 10.00 |  | 
9 | CCCCCCCCCCCCCCNC(=O)C1CN(C(=O)c2ccc(C(=O)N3C[C@@H](C(=O)N[C@H]4C[C@@H]4c4ccccc4)[C@H](C(=O)N[C@H]4C[C@@H]4c4ccccc4)C3)cc2)CCN1 (mixture of isomers) [Compound 054, (3S,4S)—N3,N4-bis ((1S,2R)-2-phenylcyclopropyl)-1-(4-(3-(tetradecylcarbamoyl)piperazine-1-carbonyl)benzoyl) pyrrolidine-3,4-dicarboxamide] | 7.30 to 10.00 | 6.46 to 7.29 |  | 
10 | CCCCCCCCN1C(=O)CN(C(=O)c2ccc(C(=O)N3C[C@@H](C(=O)N[C@H]4C[C@@H]4c4ccccc4)[C@H](C(=O)N[C@H]4C[C@@H]4c4ccccc4)C3)cc2)C[C@@H]1C(=O)NCCCCCC [Compound 075, (3S,4S)-1-(4-((R)-3-(hexylcarbamoyl)-4-octyl-5-oxopiperazine-1-carbonyl)benzoyl)-N3,N4-bis((1S,2R)-2-phenylcyclopropyl)pyrrolidine-3,4-dicarboxamide] | 7.30 to 10.00 | 6.46 to 7.29 |  | 
11 | CCCCCCCCCCCCCCC(=O)N[C@@H]1CCN(C(=O)c2ccc(C(=O)N3C[C@@H](C(=O)N[C@H]4C[C@@H]4c4ccccc4)[C@H](C(=O)N[C@H]4C[C@@H]4c4ccccc4)C3)cc2)C1 [Compound 027, (3S,4S)-1-(4-((R)-3-pentadecanamidopyrrolidine-1-carbonyl)benzoyl)-N3,N4-bis((1S,2R)-2-phenylcyclopropyl)pyrrolidine-3,4-dicarboxamide] | 7.30 to 10.00 | 7.30 to 10.00 |  | 
12 | CCCCCCCCCCCCCCNC(=O)[C@H]1CN(C(=O)c2ccc(C(=O)N3C[C@@H](C(=O)N[C@H]4C[C@@H]4c4ccccc4)[C@H](C(=O)N[C@H]4C[C@@H]4c4ccccc4)C3)cc2)C[C@H]1O (relative stereo) [Compound 104, (3S,4S)-1-(4-((3S*,4S*)-3-hydroxy-4-(tetradecylcarbamoyl)pyrrolidine-1-carbonyl)benzoyl)-N3,N4-bis((1S,2R)-2-phenylcyclopropyl)pyrrolidine-3,4-dicarboxamide] | 7.30 to 10.00 |  | 7.30 to 10.00 | 
13 | CCCCCCCCCCCCOC(=O)N[C@H]1CN(C(=O)c2ccc(C(=O)N3C[C@@H](C(=O)N[C@H]4C[C@@H]4c4ccccc4)[C@H](C(=O)N[C@H]4C[C@@H]4c4ccccc4)C3)cc2)C[C@@H]1OC [Compound 216, dodecyl ((3S,4S)-1-(4-((3S,4S)-3,4-bis(((1S,2R)-2-phenylcyclopropyl)carbamoyl)pyrrolidine-1-carbonyl)benzoyl)-4-methoxypyrrolidin-3-yl)carbamate] |  |  | 7.30 to 10.00 | < 6.00
14 | CCCCCCCNC(=O)N[C@@H](CNC(=O)c1ccc(C(=O)N2C[C@@H](C(=O)N[C@H]3C[C@@H]3c3ccccc3)[C@H](C(=O)N[C@H]3C[C@@H]3c3ccccc3)C2)cc1)C(=O)NCCCCCC [Compound 181, (3S,4S)-1-(4-(((S)-2-(3-heptylureido)-3-(hexylamino)-3-oxopropyl)carbamoyl)benzoyl)-N3,N4-bis ((1S,2R)-2-phenylcyclopropyl) pyrrolidine-3,4-dicarboxamide] |  |  | 7.30 to 10.00 | < 6.00
15 | CCCCCCCCOC(=O)N[C@@H](CNC(=O)c1ccc(C(=O)N2C[C@@H](C(=O)N[C@H]3C[C@@H]3c3ccccc3)[C@H](C(=O)N[C@H]3C[C@@H]3c3ccccc3)C2)cc1)C(=O)NCCCCCC [Compound 228, octyl ((S)-3-(4-((3S,4S)-3,4-bis(((1S,2R)-2-phenylcyclopropyl)carbamoyl)pyrrolidine-1-carbonyl)benzamido)-1-(hexylamino)-1-oxopropan-2-yl)carbamate] |  |  | 7.30 to 10.00 | < 6.00
16 | CCCCCCCCCCCNC(=O)N[C@H]1CN(C(c2ccc(C(=O)N3C[C@@H](C(=O)N[C@H]4C[C@@H]4c4ccccc4)[C@H](C(=O)N[C@H]4C[C@@H]4c4ccccc4)C3)cc2)C(F)(F)F)C[C@@H]1OC (single isomer, unassigned) [Compound 231, (3S,4S)—N3,N4-bis((1S,2R)-2-phenylcyclopropyl)-1-(4-((S*)-2,2,2-trifluoro-1-((3S,4S)-3-methoxy-4-(3-undecylureido)pyrrolidin-1-yl)ethyl)benzoyl)pyrrolidine-3,4-dicarboxamide] |  |  | 7.30 to 10.00 | 6.46 to 7.29
17 | CCCCCCCNC(=O)[C@H](CNC(=O)c1ccc(C(=O)N2C[C@@H](C(=O)N[C@H]3C[C@@H]3c3ccccc3)[C@H](C(=O)N[C@H]3C[C@@H]3c3ccccc3)C2)cc1)NC(=O)CCCCCCC [Compound 184, (3S,4S)-1-(4-(((S)-3-(heptylamino)-2-octanamido-3-oxopropyl)carbamoyl)benzoyl)-N3,N4-bis((1S,2R)-2-phenylcyclopropyl)pyrrolidine-3,4-dicarboxamide] |  |  | 7.30 to 10.00 | 6.46 to 7.29
